US10342804B2, “Steroid compound for use in the treatment of hepatic encephalopathy” (Umecrine Cognition AB, priority 2014, dated 2019)

Columns and labels:
Assay type in all cases: in vivo, rat
blood ammonia = test: Blood ammonia, hyperammonemic rats (Example 12); conditions: 20 mg/Kg
Experimental: (§1) Male Wistar rats (140-160 g) were made hyperammonemic by feeding them a diet containing ammonium acetate (30% by weight) (Felipo et al, European Journal of Biochemistry, 1988, 176, 567-571).
(§2) 3α-ethynyl-3β-hydroxyandrostan-17-one oxime in sesame oil was administered by subcutaneous injections in the back of the rats, once daily. Two different sets of experiments were performed in hyperammonemic rats. In the first set four groups of rats were used: 1) control rats injected with vehicle; 2) hyperammonemic rats injected with vehicle; 3) control rats injected with 20 mg/Kg of 3α-ethynyl-3β-hydroxyandrostan-17-one oxime and 4) hyperammonemic rats injected with 20 mg/Kg of 3α-ethynyl-3β-hydroxyandrostan-17-one oxime.
Blood ammonia was measured using the kit II Ammonia Arkray test (PocketChem BA, Arkray) using 20 μL of fresh blood following manufacturer's specifications.

hyperammonemic rats = test: Radial maze test, hyperammonemic rats (Example 10)
Experimental: as §1, §2
In the second set of experiments five groups of rats were used: 1) control rats injected with vehicle; 2) hyperammonemiac rats injected with vehicle and 3-5) hyperammonemic rats injected with 3, 10 or 20 mg/Kg of 3α-ethynyl-3β-hydroxyandrostan-17-one oxime. In each experiment 6-8 rats per group were used.
The apparatus was composed of a central area that gave access to eight equally-sized arms. The arms were 70 cm long and 10 cm wide and the central area was 30 cm in diameter. […] Rats were allowed to explore the maze for 10 minutes on two consecutive days in the presence of distal cues to adapt to the maze. Training in the radial maze was composed of three trials per day on six consecutive days. The task involved locating four pellets, each placed at the end of a different arm according to a random configuration as described by Hernandez-Rabaza et al. (Addiction Biology, 2010, 15, 413-423). The number of working memory errors (visits to arms already visited in the same trial) were recorded and expressed as working errors.

PCS rats = test: Beam walking test, PCS rats (Example 8)
Experimental: Male Wistar rats (220-240 g) were anesthetized with isoflurane, and an end-to side porta-caval anastomosis was performed as described by Lee and Fisher (Surgery, 1961, 50, 668-672).
Rats that were subjected to the porta-caval anastomosis procedure are herein referred to as “PCS rats”.
3α-ethynyl-3β-hydroxyandrostan-17-one oxime in sesame oil was administered by subcutaneous injections in the back of the rats, once daily. Two different sets of experiments were performed in hyperammonemic rats. In the first set four groups of rats were used: 1) control rats injected with vehicle; 2) hyperammonemic rats injected with vehicle; 3) control rats injected with 20 mg/Kg of 3α-ethynyl-3β-hydroxyandrostan-17-one oxime and 4) hyperammonemic rats injected with 20 mg/Kg of 3α-ethynyl-3β-hydroxyandrostan-17-one oxime. […]
Motor coordination was tested as described by Gonzalez-Usano et al (ACS Chemical Neuroscience, 2014, 19, 5(2), 100-105) using a wooden beam (20 mm diameter). Rats were made to traverse a one-meter-long wooden beam located approximately one meter above the ground, and the number of foot faults (slips) was recorded by two observers. The rats were trained for the test by being made to traverse the beam up to five times before measurements were recorded. […]

[1] = Concentrations in plasma and brain tissue after exogenous administration, LC-MS (Example 5); conditions: for Unbound brain concentration: 1-2 h after last treatment, seven weeks daily 20 mg/kg s.c.
From the text: The study was divided into two series with animals (male Wistar rats), each series included the following groups; Controls treated with vehicle (CV, n=8 per series), Controls treated with 3α-ethynyl-3β-hydroxyandrostan-17-one oxime (C+GAM, n=8 per series), hyperammonemic rats treated with vehicle (HAV, n=8 per series), hyperammonemic rats treated with 3α-ethynyl-3β-hydroxyandrostan-17-one oxime (HA+GAM, n=8 per series). The once daily treatment with 3α-ethynyl-3β-hydroxyandrostan-17-one oxime at 20 mg/kg or with vehicle was performed with subcutaneous injections of 1 ml/kg around 9 a.m. Treatment started one week after starting with the ammonium containing diet and continued for the whole experimental period.
Blood was obtained from the tail of the rats (from Example 2) in the end of second week of ammonia treatment and first week of 3α-ethynyl-3β-hydroxyandrostan-17-one oxime treatment and also from the neck during the animal sacrifice. To obtain the plasma it was added EDTA […] and centrifuged at 1500 r.p.m during 5 minutes.
Rats were sacrificed by decapitation. One half of the brain including the cerebellum was collected and conserved at −80° C. for determination of 3α-ethynyl-3β-hydroxyandrostan-17-one oxime. Different brain areas (cerebellum, cortex, hippocampus and striatum) were dissected and conserved at −80° C. for possible determination of GAMS.
Collected brain and plasma samples were analyzed for 3α-ethynyl-3β-hydroxyandrostan-17-one oxime concentrations. Plasma and brain samples were thawed at room temperature. Plasma was protein-precipitated with a 3-fold volume with acetonitrile and brain tissue was homogenized with a 1:4 ratio of tissue:PBS (pH 7.4) and then extracted with a 2-fold volume of methanol:acetonitrile (1:1) for 20 min during sonication. Thereafter samples were shaken and centrifuged for 10 min at 10 000×g (Heraeus Pico 17 centrifuge).
The supernatant was then diluted with an equal volume of PBS and analyzed. Some samples were reanalyzed as 10-fold dilutions due to too high concentration of 3α-ethynyl-3β-hydroxyandrostan-17-one oxime. […]

**Q.** For `C#C[C@]1(O)CC[C@@]2(C)C(CC[C@@H]3[C@@H]2CC[C@]2(C)/C(=N\O)CC[C@@H]32)C1` (stereo partly drawn) [3α-ethynyl-3β-hydroxyandrostan-17-one oxime], which Blood ammonia levels (blood ammonia) is on record?
**A.** Its Blood ammonia levels is 139 ± 14 µM.

**Q.** What about the “Number of working errors in days 1-2, radial maze” value (shortened to “Number of working errors”) (hyperammonemic rats; 3 mg/kg) of the same compound?
**A.** The value was 6.5±2.8 errors.

**Q.** And the “Number of working errors” value (hyperammonemic rats; 10 mg/kg)?
**A.** The value was 8.8±1.9 errors.

**Q.** And the “Number of working errors” value (hyperammonemic rats; 20 mg/kg)?
**A.** Its value is 12±2 errors.

**Q.** What about the “Number of slips, beam walking test” value (PCS rats; 0.7 mg/kg s.c. once daily) of the same compound?
**A.** Its value is 0.75±0.10 slips.

**Q.** What about the “Number of slips, beam walking test” value (PCS rats; 2.5 mg/Kg s.c. once daily) of the same compound?
**A.** Its value is 0.8±0.1 slips.

**Q.** And the Unbound brain concentration ([1]; HA rats)?
**A.** Its Unbound brain concentration is 106 ± 15.4 nmol/kg.

**Q.** And the Unbound brain concentration ([1]; control rats)?
**A.** Its Unbound brain concentration is 91 ± 4.1 nmol/kg.

**Q.** What about the “Total concentration in plasma, 23 hours vs 4 hours after injection” value ([1]; treatment day five, 20 mg/kg s.c., control and hyperammonemic rats) of the same compound?
**A.** The value was “lower 23 hours after injection than 4 hours after injection”.
